Test results reported in PMC9393390 (Frontiers in Pharmacology, 2022).
Where two headings read alike, the source gives them in different places.

Key:
[1] = molecular target: T1, SARS-CoV-2-RBD (S-RBD) (Severe acute respiratory syndrome coronavirus 2, UniProt P0DTC2); assay: Surface plasmon resonance (SPR) binding to immobilized S-RBD
T1 construct: purchased Sino Biological

[2] = molecular target: T2, hACE2 (Homo sapiens, UniProt Q9BYF1); assay: Surface plasmon resonance (SPR) binding to immobilized hACE2
T2 construct: purchased Sino Biological
T2 sequence (Q9BYF1 18-805): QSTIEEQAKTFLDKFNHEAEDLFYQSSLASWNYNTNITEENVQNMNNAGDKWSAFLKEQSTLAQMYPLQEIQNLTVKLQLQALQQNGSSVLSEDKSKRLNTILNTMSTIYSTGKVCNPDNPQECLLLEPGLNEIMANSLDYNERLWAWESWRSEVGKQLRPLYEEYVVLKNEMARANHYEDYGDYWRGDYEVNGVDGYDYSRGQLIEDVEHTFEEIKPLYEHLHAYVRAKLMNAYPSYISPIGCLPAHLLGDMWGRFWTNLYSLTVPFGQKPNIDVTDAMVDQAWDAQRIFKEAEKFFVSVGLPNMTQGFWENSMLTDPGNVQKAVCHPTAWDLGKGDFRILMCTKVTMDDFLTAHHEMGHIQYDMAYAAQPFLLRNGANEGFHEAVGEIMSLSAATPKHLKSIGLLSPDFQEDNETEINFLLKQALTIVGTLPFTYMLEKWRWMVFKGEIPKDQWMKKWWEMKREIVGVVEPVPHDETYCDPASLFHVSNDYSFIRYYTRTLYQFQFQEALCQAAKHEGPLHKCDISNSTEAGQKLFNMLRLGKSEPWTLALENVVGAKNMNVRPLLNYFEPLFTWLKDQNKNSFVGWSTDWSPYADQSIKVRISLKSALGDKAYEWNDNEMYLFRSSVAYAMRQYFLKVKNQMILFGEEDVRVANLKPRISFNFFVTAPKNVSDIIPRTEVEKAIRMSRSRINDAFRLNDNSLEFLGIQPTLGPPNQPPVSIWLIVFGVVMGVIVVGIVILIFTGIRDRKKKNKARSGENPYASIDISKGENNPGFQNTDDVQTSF
Procedure: The recombinant S-RBD (Sino Biological, Beijing, China) and hACE2 protein (Sino Biological, Beijing, China) were used for surface plasmon resonance (SPR) analysis using a Biacore 8K instrument (Biacore, Uppsala, Sweden) as previously described ([Chu et al., 2018a]; [Chu et al., 2018b]). Each target was immobilized onto flow cells in a CM5 sensor chip (GE Healthcare) via the amine-coupling method. Briefly, S-RBD was diluted in 10 mM pH 5.5 acetate to 20 µg/ml, while hACE2 was diluted in 10 mM pH 4.5 acetate to 20 µg/ml. Then the protein solutions were injected individually on the carboxyl modified sensor surface to form amine bonds. Both S-RBD and hACE2 immobilized levels were about 10,000 RU. Binding analyses were carried out at 25 °C and a flow rate of 30 μl min^−1. The retrieved drugs in a running buffer (1×PBS, 0.05% Tween 20 and 5% dimethyl sulfoxide, pH 7.4) were run over each target at gradient concentrations as indicated. An empty flow cell, without any immobilized protein, was used as a deducted reference. The binding curves were analyzed using a kinetic binding model supplied with Biacore Evaluation Software (GE Healthcare).
To evaluate the retrieved inhibitors against the S-RBD-hACE2, surface plasmon resonance (SPR) was used to determine the binding affinities of the 20 retrieved drugs to S-RBD and hACE2.
SPR analysis was performed to assess the retrieved drugs binding to hACE2 at gradient concentrations. The binding curves were analyzed using a kinetic analysis supplied with Biacore Evaluation Software. Data are presented as RU over time (s). The K D were calculated using a 1:1 binding model.

[3] = molecular target: T3, S-RBD binding to hACE2 (Homo sapiens, UniProt Q9BYF1); assay: SPR competition binding experiment (S-RBD on immobilized hACE2); details: competitive SPR, 40 nM S-RBD, 25 μM to 0.012 μM
T3 construct: purchased Sino Biological
T3 sequence (Q9BYF1 18-740): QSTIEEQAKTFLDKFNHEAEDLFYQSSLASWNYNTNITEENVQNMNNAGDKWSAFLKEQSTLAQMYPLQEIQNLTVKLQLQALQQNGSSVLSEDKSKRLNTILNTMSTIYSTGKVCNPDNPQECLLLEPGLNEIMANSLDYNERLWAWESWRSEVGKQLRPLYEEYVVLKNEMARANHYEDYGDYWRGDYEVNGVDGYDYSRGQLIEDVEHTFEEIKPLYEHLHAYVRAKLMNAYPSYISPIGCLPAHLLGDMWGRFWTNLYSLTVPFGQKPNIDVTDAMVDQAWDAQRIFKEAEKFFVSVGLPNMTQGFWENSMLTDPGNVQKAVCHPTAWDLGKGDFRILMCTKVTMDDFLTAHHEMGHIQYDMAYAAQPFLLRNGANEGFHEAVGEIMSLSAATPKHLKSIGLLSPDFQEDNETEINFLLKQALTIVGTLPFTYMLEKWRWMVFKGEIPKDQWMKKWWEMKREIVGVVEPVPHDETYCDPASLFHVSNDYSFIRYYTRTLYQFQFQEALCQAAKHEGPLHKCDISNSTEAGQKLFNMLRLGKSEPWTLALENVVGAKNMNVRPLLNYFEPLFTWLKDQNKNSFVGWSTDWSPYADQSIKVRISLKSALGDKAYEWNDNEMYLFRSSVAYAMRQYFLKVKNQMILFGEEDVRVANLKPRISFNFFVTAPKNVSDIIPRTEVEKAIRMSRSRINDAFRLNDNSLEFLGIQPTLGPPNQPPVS

[4] = molecular target: S-RBD binding to hACE2 (Severe acute respiratory syndrome coronavirus 2, UniProt P0DTC2); assay: Competitive inhibition ELISA (SARS-CoV-2 inhibitor screening kit); type: biochemical; details: 1 μM
[5] = SPR, 25 °C, 1:1 binding model, read-out: S-RBD K D
[6] = SPR, 25 °C, 1:1 binding model, read-out: ACE2 K D

Compound	Kd [1] [µM]	Kd [2] [µM]	also measured
Nc1c(Br)cc(Br)cc1CN[C@H]1CC[C@H](O)CC1 [Ambroxol]	21.2		
C[C@@H]1[C@H](O)[C@@H](C)/C=C/C=C/C=C/C=C/C=C/C=C/C=C/[C@H](O[C@@H]2O[C@H](C)[C@@H](O)[C@H](N)[C@@H]2O)C[C@@H]2O[C@](O)(C[C@@H](O)C[C@@H](O)[C@H](O)CC[C@@H](O)C[C@@H](O)CC(=O)O[C@H]1C)C[C@H](O)[C@H]2C(=O)O [Amphotericin B]	1.01	9.49	
Cc1ccc([C@@H]2O[C@H](CO)[C@@H](O)[C@H](O)[C@H]2O)cc1Cc1ccc(-c2ccc(F)cc2)s1 [Canagliflozin]			Kd [1, 5]: 23.1 µM
Cc1cc(OCCCS(C)(=O)=O)cc(C)c1-c1cccc(COc2ccc3c(c2)OC[C@H]3CC(=O)O)c1 [Fasiglifam]	42.2	10.5	
COC(=O)C1=CO[C@@H](O[C@@H]2O[C@H](CO)[C@@H](O)[C@H](O)[C@H]2O)[C@@H]2C(CO)=CC[C@H]12 [Geniposide]	54.9		
CC(C)=CCC[C@](C)(O[C@@H]1O[C@H](CO[C@@H]2O[C@@H](CO)[C@H](O)[C@H]2O)[C@@H](O)[C@H](O)[C@H]1O)[C@H]1CC[C@]2(C)[C@@H]1[C@H](O)C[C@@H]1[C@@]3(C)CC[C@H](O[C@@H]4O[C@H](CO)[C@@H](O)[C@H](O)[C@H]4O[C@@H]4O[C@H](CO)[C@@H](O)[C@H](O)[C@H]4O)C(C)(C)[C@@H]3CC[C@]12C [Ginsenoside Rc]	79.8		
CC[C@H](C)C(=O)O[C@H]1CCC=C2C=C[C@H](C)[C@H](CC[C@@H]3C[C@@H](O)CC(=O)O3)[C@H]21 [Mevastatin]	273		
C[C@@H]1[C@H](O)[C@@H](C)/C=C/C=C/CC/C=C/C=C/C=C/C=C/C(O[C@H]2O[C@H](C)[C@@H](O)[C@H](N)[C@@H]2O)CC2O[C@](O)(CC(O)C(O)CCC(O)CC(O)CC(O)CC(=O)O[C@H]1C)CC(O)C2C(=O)O (some centres unmarked) [Nystatin]			Kd [1, 5]: 215 µM
COC(=O)C1=CC[C@@]23CC[C@@H]([C@@](C)(/C=C/C=C(\C)C(=O)O)OC2=O)[C@@]3(OC(C)=O)CC1 [Pseudolaric acid B]		53.8	
CCC(C)(C)C(=O)O[C@H]1C[C@@H](C)C=C2C=C[C@H](C)[C@H](CC[C@@H]3C[C@@H](O)CC(=O)O3)[C@H]21 [Simvastatin]		35.8	
O=S(=O)(O)Oc1ccc(C(c2ccc(OS(=O)(=O)O)cc2)c2ccccn2)cc1 [Sodium Picosulfate]	16	45.4	
O=C(OCC1OC(OC(=O)c2cc(O)c(O)c(OC(=O)c3cc(O)c(O)c(O)c3)c2)C(OC(=O)c2cc(O)c(O)c(OC(=O)c3cc(O)c(O)c(O)c3)c2)C(OC(=O)c2cc(O)c(O)c(OC(=O)c3cc(O)c(O)c(O)c3)c2)C1OC(=O)c1cc(O)c(O)c(OC(=O)c2cc(O)c(O)c(O)c2)c1)c1cc(O)c(O)c(OC(=O)c2cc(O)c(O)c(O)c2)c1 (centres unmarked) [Tannic acid]			interference with binding of S-RBD to hACE2 [3]: interfered with the binding of the S-RBD to hACE2 in a dose-dependent manner; Kd ([2]; read-out: ACE2 K D, SPR, 25 °C, 1:1 binding model): 8.55 µM; prevention of S-RBD binding to hACE2 [4]: prevented S-RBD from binding to hACE2
Aescin			Kd [2, 6]: 105 µM
Sodium aescinate			Kd [1, 5]: 16.8 µM
Teichomycin			Kd [2, 6]: 250 µM
